In patent US9161939B2, “Pyrrolo[2,3-d]pyrimidine compounds” (Zoetis LLC, priority 2008, dated 2015):

Key:
[1] = target: Recombinant JAK-1 (GST-JAK-1 (852-1142)) (Homo sapiens (Human), UniProt P23458); assay: JAK Enzymatic Assay (peptide mobility shift), JAK-1; format: biochemical; settings: ATP 40 micromolar, IRS-1 peptide, 240 minutes
Method: (§4) Materials: Recombinant JAK-2 (Catalog Number PV4210) and JAK-3 (Catalog Number PV3855) were purchased from (Invitrogen Corporation, Madison, Wis.). Recombinant JAK-1 (GST-JAK-1 (852-1142)) and Tyk-2 (GST-Tyk2 (870-1187, C1187S)) used in this study were expressed and purified at Pfizer Laboratories. Adenosine 5′-triphosphate (ATP) was obtained from Sigma Chemical Company, St. Louis, Mo. […] Coating Reagent 3 was purchased from (Caliper Life Sciences, Hopkinton, Mass.).
(§5) Reactions were carried out in a 384-well plate (Matrical MP-101) in a 10 microliter total volume. Reaction mixtures contained 20 mM HEPES, pH 7.4, 10 mM magnesium chloride, 0.01% bovine serum albumin (BSA), 0.0005% Tween-20, ATP (4 micromolar for JAK-2 and JAK-3, 40 micromolar for JAK-1 and 7 micromolar for Tyk-2)), 2% DMSO and 1 micromolar peptide substrate (JAKtide for JAK-2 and JAK-3 or IRS-1 peptide for JAK-1 and Tyk-2). Compounds were diluted serially in 100% dimethyl sulfoxide and tested in an 11 point dose response in duplicate or quadruplicate (200 nl of compound/DMSO was added per 10 microliter reaction). […] Data was analyzed using Hits Well Analyzer Software from (Caliper Life Sciences) to obtain the amount of product formed.
(§6) Data was then imported into an internal application where each data point was expressed as % inhibition based on uninhibited and no enzyme controls. […]

[2] = target: Recombinant JAK-3 (Homo sapiens (Human), UniProt P52333); assay: JAK Enzymatic Assay (peptide mobility shift), JAK-3; format: biochemical; settings: ATP 4 micromolar, JAKtide, 90 minutes
Chain of Recombinant JAK-3 (P52333 781-1124): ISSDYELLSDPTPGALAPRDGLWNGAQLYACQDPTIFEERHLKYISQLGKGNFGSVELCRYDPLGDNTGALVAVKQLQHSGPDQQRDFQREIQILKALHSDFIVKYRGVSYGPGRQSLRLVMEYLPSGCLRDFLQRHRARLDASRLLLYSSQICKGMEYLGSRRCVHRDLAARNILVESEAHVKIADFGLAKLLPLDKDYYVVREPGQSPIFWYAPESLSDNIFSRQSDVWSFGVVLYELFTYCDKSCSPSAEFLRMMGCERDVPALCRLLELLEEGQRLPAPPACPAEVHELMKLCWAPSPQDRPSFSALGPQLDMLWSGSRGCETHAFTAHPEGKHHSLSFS
Method: as §4, §5, §6

[3] = tested on: T-cell proliferation in canine whole blood (ConA + canine IL-2); assay: Canine In Vitro T-Cell Proliferation Assay; format: cell-based; settings: Canis lupus familiaris, tritiated thymidine
Method: Methods: Canine whole blood was collected in sodium heparin tubes from 29 beagle dogs and 23 mixed breed dogs. Whole blood (20 μL) was plated in 96-well plates (Costar 3598) with 180 μL of medium (RPMI 1640, Gibco #21870-076, with 1% heat inactivated fetal bovine serum, Gibco #10082-39, 292 μg/ml L-glutamine, Gibco #250030-081, 100 u/ml penicillin and 100 μg streptomycin per ml, Gibco #15140-122) containing vehicle control or test compound (0.001 to 10 μM), concanavalin A (ConA; 1 μg/ml, Sigma C5275), and canine interleukin-2 (IL-2; 50 ng/ml, R&D Systems 1815-CL/CF). Wells containing whole blood, medium with vehicle control and no ConA or IL-2 were used as background controls. Plates were incubated at 37° C. for 48 hours. Tritiated thymidine, 0.4 μCi/well (Perkin Elmer, Net027A-005MC), was added for 20 additional hours. Plates were frozen and then thawed, washed and filtered using a Brandel MLR-96 cell harvester and prewet filter mats (Wallac 1205-401, Perkin Elmer). Filters were dried at 60° C. for one hour (Precision 16EG convection oven) and placed into filter sample bags (Wallac 1205-411, Perkin Elmer) with 10 mL of scintillant (Wallac 1205-440, Perkin Elmer). Sealed filters were counted on a LKB Wallac 1205 Betaplate liquid scintillation counter. Data were collected via Gterm Betaplate program v1.1 (Wallac copyright 1989-1990) and transformed into percent inhibition, calculated using the following formula: […]

[4] = tested on: MYA-1 feline T-lymphoblast cell line; assay: Cell Proliferation Inhibitory Assay, MYA-1; format: cell-based; settings: Felis catus; Feline MYA-1 lymphoid line (IL-2 dependent); MTS
Method: (§1) Feline Cell Lines The MYA-1 and FETJ are feline T-lymphoblast cell lines obtained from ATCC (Manassas, Va.). These cells were cultured in RPMI 1640 complete media supplemented with 10% FBS at 37° C. in a humidified incubator with 5% CO2.
(§2) Cells cultured in medium described above were plated in 96-well Costar plates (Corning) at a density of 1×10^3 cells/well (feline cell lines) or 2×10^5 cells/well (lymph node cells) and exposed to various concentrations of test compounds for up to 5 days at 37° C. in a humidified incubator with 5% CO2. Effects on proliferation were determined using the CellTiter 96® AQueous Non-Radioactive Cell Proliferation Assay (Promega) according to manufacturer's instructions. In general, proliferation was indirectly measured using a soluble tetrazolium salt (MTS) and an electron coupling agent. MTS bioreduction into a formazan product soluble in tissue culture medium was monitored by absorbance at 490 nm on a Spectramax plate reader using Softmax Pro 4.6 software (Molecular Devices).

[5] = tested on: FETJ feline T-lymphoblast cell line; assay: Cell Proliferation Inhibitory Assay, FETJ; format: cell-based; settings: Felis catus; Feline FETj lymphoid line (IL-2 independent); MTS
Method: as §1, §2

[6] = tested on: MSU LN 8 De novo T-cell lymphoma lymph node cells; assay: Cell Proliferation Inhibitory Assay, ex vivo canine lymphoma nodal tissue MSU LN 8; format: cell-based; settings: Canis lupus familiaris, Canine MSU LN 8, De novo T-cell lymphoma
Method: (§3) Malignant lymph nodes were excised by veterinary staff at Michigan State University (MSU) Veterinary College, placed into transport media (Advanced RPMI 1640 complete medium supplemented with 10% Fetal Bovine Serum (FBS), 100 U/mL penicillin, 100 ug/mL streptomycin and 0.25 ug/mL Amphotercin B (Invitrogen/Gibco®). Nodes were processed within 24 hours of removal by mincing into tiny pieces and passing through a tissue sieve. Cell suspensions were spun at 200×g, supernatant was removed, and the cell pellet was resuspended in NH4Cl for 10 minutes at room temperature. The cell suspension was pelleted by centrifugation; the NH4Cl was removed and washed once with Hanks Balanced Salt Solution (HBSS), followed by re-suspension in Proliferation Medium (Advanced RPMI complete, 1% FBS, […] 2-Mercaptoethanol, 100 U/mL penicillin, 100 ug/mL streptomycin and 0.25 ug/mL Amphotercin B). The cell suspension was then passed through a 100 μm nylon cell strainer (BD-Falcon) and counted using a hemacytometer. Cells were cultured in either Proliferation Medium alone, Proliferation Medium supplemented with 0.005% Pansorbin® (Heat inactivated, formalin-fixed Staphylococcus Aureus cells (SAC), Calbiochem), and 10 ng/mL canine IL-2 (R&D Systems), or Proliferation Medium supplemented with 125 ng/mL concavalin A (Sigma) and 125 ng/mL lipopolysaccarride (LPS; Calbiochem). […]

[7] = tested on: MSU LN 9 De novo B-cell lymphoma lymph node cells; assay: Cell Proliferation Inhibitory Assay, ex vivo canine lymphoma nodal tissue MSU LN 9; format: cell-based; settings: Canis lupus familiaris, Canine MSU LN 9, De novo B-cell lymphoma
Method: as §3

[8] = tested on: MSU LN 10 Chemotherapy resistant B-cell lymphoma lymph node cells; assay: Cell Proliferation Inhibitory Assay, ex vivo canine lymphoma nodal tissue MSU LN 10; format: cell-based; settings: Canis lupus familiaris; Canine MSU LN 10, Chemotherapy resistant B-cell lymphoma; LPS + ConA
Method: as §3

[9] = tested on: MSU LN 11 De novo B-cell lymphoma lymph node cells; assay: Cell Proliferation Inhibitory Assay, ex vivo canine lymphoma nodal tissue MSU LN 11; format: cell-based; settings: Canis lupus familiaris; Canine MSU LN 11, De novo B-cell lymphoma; LPS + ConA
Method: as §3

[10] = target: Recombinant JAK-2 (Homo sapiens (Human), UniProt O60674); settings: read-out: JAK-2 IC50; ATP 4 micromolar, JAKtide, 150 minutes
Chain of Recombinant JAK-2 (O60674 808-1132): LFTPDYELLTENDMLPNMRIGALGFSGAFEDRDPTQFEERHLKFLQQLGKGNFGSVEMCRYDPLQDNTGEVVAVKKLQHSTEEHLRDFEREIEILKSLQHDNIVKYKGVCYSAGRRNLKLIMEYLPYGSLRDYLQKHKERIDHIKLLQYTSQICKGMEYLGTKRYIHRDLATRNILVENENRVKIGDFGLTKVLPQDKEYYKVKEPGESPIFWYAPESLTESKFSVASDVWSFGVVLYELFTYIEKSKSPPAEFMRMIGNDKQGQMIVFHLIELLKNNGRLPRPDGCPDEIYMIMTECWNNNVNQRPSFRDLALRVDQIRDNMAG
Method: as §4, §5, §6

[11] = tested on: flea-associated pruritus and dermatitis in flea allergic dogs; assay: Reducing Flea-Associated Pruritus and Dermatitis Assay; format: in vivo; settings: for pruritus as compared to placebo (seconds of pruritus per 4 hour recording): 10% level of significance
Method: Twenty eight male and female dogs of mixed breeds ranging in weight from 5-35 kg and greater than one year of age were infested with approximately 100 unfed adult cat fleas (Ctenocephalides felis) 14 days prior to the start of dosing and reinfested with 30 fleas per dog every 4 days throughout the study. Seven days before dosing, twenty four dogs were randomized into three different treatment groups, placebo, 0.5 mg/kg or 0.25 mg/kg of the compound of Example 1b, based on visual analog scale (VAS) scores for skin lesions. Treatments were given orally twice a day for 28 days, and pruritic behavior as well as erythema and skin lesions were was assessed during the study. Pruritic behavior was recorded by placing dogs into pens with video recording capability, and recording their activity over 4 hours. Pruritic activity was quantitated by determining how many seconds the dogs spent scratching. Skin lesions were recorded by image capture of abdominal, inguinal region and the severity ranked according to a visual analog scale (VAS).
Video captured elapsed time of pruritic behavior was analyzed using a mixed linear model for repeated measures. The model included fixed effects of treatment and day of study and the interaction of treatment and day of study. Random effects included block, the interaction of block and treatment and error. Baseline data for pruritic behavior (day −1) were used as covariate in the analysis of pruritic behavior. Least squares means were used as estimates of treatment means. Standard errors of least squares means were estimated and 90% confidence intervals were constructed. Geometric means were computed from the least squares means for log-transformed data. A priori contrasts were used to assess treatment. Treatment differences were assessed at the 10% level of significance (P≦0.10).

Chain of Recombinant JAK-1 (GST-JAK-1 (852-1142)) (P23458 852-1142): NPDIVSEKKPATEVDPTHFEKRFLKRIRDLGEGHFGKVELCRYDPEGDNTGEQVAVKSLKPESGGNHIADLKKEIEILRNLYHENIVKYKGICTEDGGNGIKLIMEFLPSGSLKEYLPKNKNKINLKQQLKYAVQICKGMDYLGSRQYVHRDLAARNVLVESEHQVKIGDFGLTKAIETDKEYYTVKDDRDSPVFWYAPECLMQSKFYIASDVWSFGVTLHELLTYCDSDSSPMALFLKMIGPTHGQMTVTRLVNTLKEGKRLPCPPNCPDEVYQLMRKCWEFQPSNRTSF

## CNS(=O)(=O)C[C@H]1CC[C@H](N(C)c2ncnc3[nH]ccc23)CC1 [Example 1a, N-methyl-1-{trans-4-[methyl(7H-pyrrolo[2,3-d]pyrimidin-4-yl)amino]cyclohexyl}methanesulfonamide]
[1]
  IC50: 9.53 nM
[2]
  IC50: 95.1 nM
[3]; whole blood from beagles
  IC50: 66.3 nM
[3]; whole blood from mixed breed dogs
  IC50: 138 nM
[4]
  IC50: 122 nM
[5]
  IC50: > 1000 nM
[6]; LPS + ConA
  IC50: 357 nM
[6]; SAC + IL-2
  IC50: 38 nM
[7]; LPS + ConA
  IC50: 147 nM
[7]; SAC + IL-2
  IC50: 100 nM
[8]
  IC50: 687 nM
[9]
  IC50: 64 nM
[10]
  IC50: 17.5 nM

## CNS(=O)(=O)C[C@H]1CC[C@H](N(C)c2ncnc3[nH]ccc23)CC1.O=C(O)/C=C\C(=O)O [Example 1b, N-methyl-1-{trans-4-[methyl(7H-pyrrolo[2,3-d]pyrimidin-4-yl)amino]cyclohexyl}methanesulfonamide maleic acid salt]
[11]; 0.25 mg/kg orally twice a day, days 1, 4 and 12
  pruritus as compared to placebo (seconds of pruritus per 4 hour recording): Significant reductions
[11]; 0.5 mg/kg orally twice a day for 28 days, flea allergic dogs, Day 27 VAS
  Lesions and erythema (VAS scores): significantly reduced
[11]; 0.5 mg/kg orally twice a day, days 1 and 20
  pruritus as compared to placebo (seconds of pruritus per 4 hour recording): Significant reductions

## CN(c1ncnc2[nH]ccc12)[C@H]1CC[C@H](CS(=O)(=O)NC2CCC2)CC1 [Example 2, N-cyclobutyl-1-{trans-4-[methyl(7H-pyrrolo[2,3-d]pyrimidin-4-yl)amino]cyclohexyl}methanesulfonamide]
[1]
  IC50: 45 nM
[2]
  IC50: 742 nM
[3]; whole blood from beagles
  IC50: 410 nM
[10]
  IC50: 101 nM

## CCNS(=O)(=O)C[C@H]1CC[C@H](N(C)c2ncnc3[nH]ccc23)CC1 [Example 3, N-ethyl-1-{trans-4-[methyl(7H-pyrrolo[2,3-d]pyrimidin-4-yl)amino]cyclohexyl}methanesulfonamide]
[3]; whole blood from beagles
  IC50: 83 nM
